Laboratory results published in patent publication US9751881B2, “Inhibitors of the renal outer medullary potassium channel” (Merck Sharp & Dohme Corp., priority 2013, dated 2017).
Counter-ions that a name gives are not always drawn.

The molecules below were run against hROMK (hKir1.1) (Homo sapiens (Human), UniProt P48048) (assay: Thallium Flux Assay (ROMK channel functional thallium flux, FLIPR-Tetra)). Details: HEK293 cells stably expressing hROMK (hKir1.1); unit not given in Table 4 (IC50 potencies less than 1 μM); read-out: ROMK TI IC50.
Format: cell-based
Method: Cell Culture Conditions—HEK293 cells stably expressing hROMK (hKir1.1) were grown at 37° C. in a 10% CO2 humidified incubator in complete growth media: Dulbecco's Modified Eagle Medium supplemented with non-essential amino acids, Penicillin/Streptomycin/Glutamine, G418 and FBS. At >80% confluency, the media was aspirated from the flask and rinsed with 10 mL calcium/magnesium-free PBS. […] To dislodge the cell, the side of the flask was gently banged with one's hand. The cells completely titrated and then the cells were transferred to 25 mL complete media, centrifuged at 1,500 rpm for 6 min followed by resuspension in complete growth media and determine cell concentration. […] Under ideal growth conditions and appropriate tissue culture practices, this cell line is stable for 40-45 passages.
FluxOR Kit Components (Invitrogen F10017)
• FluxOR™ Reagent (Component A) • FluxOR™ Assay Buffer (Component B)—10× Concentrate • PowerLoad™ Concentrate (Component C)—100× Concentrate • Probenecid (Component D)—Lyophilized sample is kept at −20° C. Water soluble, 100× after solubilization in 1 mL water. […] Store at 4° C. • Thallium sulfate (Tl2SO4) Concentrate (Component G)—50 mM in water. […] Can be stored at room temperature • Stimulant Buffer (prepared at 5× final concentration in 1× FluxOR™Chloride-Free Buffer): 7.5 mM thallium sulfate and 0.75 mM potassium sulfate (to give a final assay concentration of 3 mM Thallium/0.3 mM potassium). Store at 4° C. when not in use. If kept sterile, this solution is good for months.
• 1. Seed HEK-hKir1.1 cells (50 μl at 20,000 cells/well) in 384-well PDL coated Microplates • 2. Allow cells to adhere overnight in humidified 37° C./10% CO2 incubator • 3. Completely remove cell growth media from microplate and replace with 25 μl loading buffer • 4. Incubate Microplate at room temperature, protected form light, for 90 min • 5. Remove loading buffer and replace with 25 μl 1× Assay Buffer±test compound. • 6. Incubate microplate at room temperature, protected from light, for 30 min • 7. […] Excitation=400 nm, Emission=460 & 580 nm. Collect data for ˜10 min.
Data Calculation—The fluorescence intensity of wells containing 3 μM of a standard control ROMK inhibitor of the present invention was used to define the ROMK-sensitive component of thallium flux. Fluorescence in the presence of test compounds was normalized to control values to provide % fluorescence change.

hROMK (hKir1.1), sequence (P48048 whole entry): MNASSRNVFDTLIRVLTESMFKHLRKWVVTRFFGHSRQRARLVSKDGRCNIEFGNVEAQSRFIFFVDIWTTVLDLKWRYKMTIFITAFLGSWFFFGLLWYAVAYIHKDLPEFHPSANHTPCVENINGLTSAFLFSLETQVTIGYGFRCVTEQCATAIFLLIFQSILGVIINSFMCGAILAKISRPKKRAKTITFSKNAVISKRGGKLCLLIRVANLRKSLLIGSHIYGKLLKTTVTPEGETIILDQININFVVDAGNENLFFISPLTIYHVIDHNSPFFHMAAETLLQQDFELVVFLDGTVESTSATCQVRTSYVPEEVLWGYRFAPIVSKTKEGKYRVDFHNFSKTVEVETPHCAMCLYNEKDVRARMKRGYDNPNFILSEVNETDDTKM

| IC50 [nM] | Compound |
| --- | --- |
| 173 | Cc1c([C@@H](O)CN2CCC3(CC2)CC(=O)N(c2ccc(-n4cnnn4)c(F)c2)C3)ccc2c1COC2=O [Example 69, 2-[3-Fluoro-4-(1H-tetrazol-1-yl)phenyl]-8-[(2R)-2-hydroxy-2-(4-methyl-1-oxo-1,3-dihydro-2-benzofuran-5-yl)ethyl]-2,8-diazaspiro[4.5]decan-3-one hydrochloride] |
| 56 | Cc1c([C@@H](O)CN2CCC3(CCCN(c4ccc(S(C)(=O)=O)cn4)C3)CC2)ccc2c1COC2=O [Example 61, (R)-5-(1-hydroxy-2-(2-(5-(methylsulfonyl)pyridin-2-yl)-2,9-diazaspiro[5.5]undecan-9-yl)ethyl)-4-methylisobenzofuran-1(3H)-one] |
| 353 | CC1=CS(=O)(=O)c2ccc(N3CCC4(CCN(C[C@H](O)c5ccc6c(c5C)COC6=O)CC4)C3)cc21 [Example 88] |
| 180 | Cc1c(C(O)CN2CCC3(CC2)CCN(c2ncccc2C#N)CC3)ccc2c1COC2=O (stereo not drawn) [Example 107] |
| 187 | Cc1c([C@@H](O)CN2CCC3(CC2)OCCN(c2ccc(S(C)(=O)=O)cn2)C3=O)ccc2c1COC2=O [Example 97, (R)-9-(2-Hydroxy-2-(4-methyl-1-oxo-1,3-dihydroisobenzofuran-5-yl)ethyl)-4-(5-(methylsulfonyl)pyridin-2-yl)-1-oxa-4,9-diazaspiro[5.5]undecan-5-one] |
| 142 | Cc1c([C@@H](O)CN2CCC3(CC2)CC(=O)N(c2nnc(S(C)(=O)=O)s2)C3)ccc2c1COC2=O [Example 71, 8-[(2R)-2-Hydroxy-2-(4-methyl-1-oxo-1,3-dihydro-2-benzofuran-5-yl)ethyl]-2-[5-(methylsulfonyl)-1,3,4-thiadiazol-2-yl]-2,8-diazaspiro[4.5]decan-3-one hydrochloride] |
| 84 | COc1cc(N2CC3(CCN(C[C@H](O)c4ccc5c(c4C)COC5=O)CC3)OC2=O)ncc1C#N [Example 95, (R)-6-(8-(2-Hydroxy-2-(4-methyl-1-oxo-1,3-dihydroisobenzofuran-5-yl)ethyl)-2-oxo-1-oxa-3,8-diazaspiro[4.5]decan-3-yl)-4-methoxynicotinonitrile] |
| 61.3 | CN[C@@H](CN1CCC2(CC1)CCN(c1ccc(C#N)cn1)C2)c1ccc2c(c1C)COC2=O [Example 77, (R)-6-(8-(2-(4-methyl-1-oxo-1,3-dihydroisobenzofuran-5-yl)-2-(methylamino)ethyl)-2,8-diazaspiro[4.5]decan-2-yl)nicotinonitrile] |
| 376 | Cc1c([C@@H](O)CN2CCC3(CC2)CN(c2ccc(S(C)(=O)=O)cn2)CCO3)ccc2c1COC2=O [Example 98, (R)-5-(1-Hydroxy-2-(4-(5-(methylsulfonyl)pyridin-2-yl)-1-oxa-4,9-diazaspiro[5.5]undecan-9-yl)ethyl)-4-methylisobenzofuran-1(3H)-one] |
| 88.7 | Cc1c([C@@H](O)CN2CCC3(CC2)CCN(c2ccc(C#N)nc2)C3)ccc2c1COC2=O [Example 87] |
| 286 | Cc1c([C@@H](O)CN2CCC3(CC2)CCN(c2ccnc(-c4ccoc4)n2)C3=O)ccc2c1COC2=O [Example 115, (R)-2-(2-(furan-3-yl)pyrimidin-4-yl)-8-(2-hydroxy-2-(4-methyl-1-oxo-1,3-dihydroisobenzofuran-5-yl)ethyl)-2,8-diazaspiro[4.5]decan-1-one] |
| 262 | Cc1c([C@@H](O)CN2CCC3(CCN(c4ncc(-n5cnnn5)cn4)CC3)C2)ccc2c1COC2=O [Example 54, (R)-5-(2-(8-(5-(1H-tetrazol-1-yl)pyrimidin-2-yl)-2,8-diazaspiro[4.5]decan-2-yl)-1-hydroxyethyl)-4-methylisobenzofuran-1(3H)-one] |
| 101 | Cc1c([C@@H](O)CN2CCC3(CC2)CC(=O)N(c2ccc4c(c2)CCS4(=O)=O)C3)ccc2c1COC2=O [Example 66, 2-(1,1-Dioxido-2,3-dihydro-1-benzothiophen-5-yl)-8-[(2R)-2-hydroxy-2-(4-methyl-1-oxo-1,3-dihydro-2-benzofuran-5-yl)ethyl]-2,8-diazaspiro[4.5]decan-3-one hydrochloride] |
| 32.8 | COc1cc(N2CCC3(CCN(C[C@H](O)c4ccc5c(c4C)COC5=O)CC3)C2)ncc1C#N [Example 82] |

Further lines, the molecule ahead of its results:

| Compound | IC50 [nM] |
| --- | --- |
| Cc1c([C@@H](O)CN2CCC3(CC2)CN(c2ccc(C#N)cn2)C3=O)ccc2c1COC2=O [Example 44, (R)-6-(7-(2-Hydroxy-2-(4-methyl-1-oxo-1,3-dihydroisobenzofuran-5-yl)ethyl)-1-oxo-2,7-diazaspiro[3.5]nonan-2-yl)nicotinonitrile] | 369 |
| Cc1c([C@@H](O)CN2CCC3(CC2)CC(=O)N(c2ccc(C#N)cn2)C3)ccc2c1COC2=O [Example 1, (R)-6-(8-(2-hydroxy-2-(4-methyl-1-oxo-1,3-dihydroisobenzofuran-5-yl)ethyl)-3-oxo-2,8-diazaspiro[4.5]decan-2-yl)nicotinonitrile] | 10.5 |
| Cc1c([C@@H](O)CN2CCC3(CC2)CCN(c2ccc(S(C)(=O)=O)nn2)C3)ccc2c1COC2=O [Example 32, (R)-5-(1-Hydroxy-2-(2-(6-(methylsulfonyl)pyridazin-3-yl)-2,8-diazaspiro[4.5]decan-8-yl)ethyl)-4-methylisobenzofuran-1(3H)-one] | 177 |
| Cc1cc2c(cc1C(O)CN1CCC3(CC1)CCN(c1ccc(C#N)cn1)C3)COC2=O (single isomer, unassigned) [Example 24B, 6-(8-(2-Hydroxy-2-(6-methyl-1-oxo-1,3-dihydroisobenzofuran-5-yl)ethyl)-2,8-diazaspiro[4.5]decan-2-yl)nicotinonitrile] | 31.4 |
| Cc1c([C@@H](O)CN2CCC3(CC2)CCN(c2ccc(C#N)cn2)C3)ccc2c1COC2=O [Example 3, (R)-6-(8-(2-hydroxy-2-(4-methyl-1-oxo-1,3-dihydroisobenzofuran-5-yl)ethyl)-2,8-diazaspiro[4.5]decan-2-yl)nicotinonitrile] | 10 |
| Cc1c([C@@H](O)CN2CCC3(CC2)CN(c2cnc(S(C)(=O)=O)cn2)C3)ccc2c1COC2=O [Example 49, (R)-5-(1-Hydroxy-2-(2-(5-(methylsulfonyl)pyrazin-2-yl)-2,7-diazaspiro[3.5]nonan-7-yl)ethyl)-4-methylisobenzofuran-1(3H)-one] | 118 |
| Cc1cc2c(cc1C(O)CN1CCC3(CC1)CCN(c1ccc(C#N)cn1)C3)COC2=O (single isomer, unassigned) [Example 24A, 6-(8-(2-Hydroxy-2-(6-methyl-1-oxo-1,3-dihydroisobenzofuran-5-yl)ethyl)-2,8-diazaspiro[4.5]decan-2-yl)nicotinonitrile] | 17.6 |
| CCS(=O)(=O)c1ccc(N2CCC3(CCN(C[C@H](O)c4ccc5c(c4C)COC5=O)CC3)C2)cn1 [Example 30, (R)-5-(2-(2-(6-(Ethylsulfonyl)pyridin-3-yl)-2,8-diazaspiro[4.5]decan-8-yl)-1-hydroxyethyl)-4-methylisobenzofuran-1(3H)-one] | 271 |
| Cc1c([C@@H](O)CN2CCC3(CC2)CN(c2ccc(C#N)cn2)C3)ccc2c1COC2=O [Example 45, (R)-6-(7-(2-Hydroxy-2-(4-methyl-1-oxo-1,3-dihydroisobenzofuran-5-yl)ethyl)-2,7-diazaspiro[3.5]nonan-2-yl)nicotinonitrile] | 104 |
| Cc1c([C@@H](O)CN2CCC3(CC2)CCN(c2ncc(S(C)(=O)=O)s2)C3)ccc2c1COC2=O [Example 38, (R)-5-(1-Hydroxy-2-(2-(5-(methylsulfonyl)thiazol-2-yl)-2,8-diazaspiro[4.5]decan-8-yl)ethyl)-4-methylisobenzofuran-1(3H)-one] | 60 |
| Cc1cc2c(cc1C(O)CN1CCC3(CC1)CCN(c1ccc(S(C)(=O)=O)cn1)C3)COC2=O (stereo not drawn) [Example 39, 5-(1-Hydroxy-2-(2-(5-(methylsulfonyl)pyridin-2-yl)-2,8-diazaspiro[4.5]decan-8-yl)ethyl)-6-methylisobenzofuran-1(3H)-one] | 195 |
| COc1cc(N2CC3(CCN(C[C@H](O)c4ccc5c(c4C)COC5=O)CC3)C2)ncc1C#N [Example 50, (R)-6-(7-(2-hydroxy-2-(4-methyl-1-oxo-1,3-dihydroisobenzofuran-5-yl)ethyl)-2,7-diazaspiro[3.5]nonan-2-yl)-4-methoxynicotinonitrile] | 42.4 |
| Cc1c([C@@H](O)CN2CCC3(CC2)CCN(c2ncc(-n4cnnn4)cn2)C3)ccc2c1COC2=O [Example 15, (R)-5-(2-(2-(5-(1H-tetrazol-1-yl)pyrimidin-2-yl)-2,8-diazaspiro[4.5]decan-8-yl)-1-hydroxyethyl)-4-methylisobenzofuran-1(3H)-one] | 57 |
